Experimental data taken from article PMC11785709, “Angelica gigas Nakai (Korean Dang-gui) Root Alcoholic Extracts in Health Promotion and Disease Therapy – active Phytochemicals and In Vivo Molecular Targets” (Pharmaceutical Research, 2025).
pKd: −log10 of the molar value.

What was measured:
DSS-induced colitis = tested on: DSS-induced colitis; parameters: method as in PMID 30917627; conditions: ip every other day 0.4 and 4 mg/kg; cited from earlier work
[1] = tested on: rat hypothalamic primary neuronal cells; parameters: method as in PMID 28066138; conditions: cited from earlier work
[2] = tested on: pentobarbital-induced sleeping behaviors; parameters: method as in PMID 28066138; conditions: cited from earlier work
[3] = tested on: methicillin-resistant Staphylococcus aureus (MRSA) sepsis; parameters: method as in PMID 34681611; conditions: ip every other day 0.4, 2 and 10 mg/kg pre-treatment; cited from earlier work
CYP2C19 and 3A4 = conditions: cited from earlier work
acute pain models = tested on: acute pain models; parameters: method as in PMID 12759141; conditions: cited from earlier work
[4] = tested on: serotonin (5-hydroxytryptamine) level; parameters: method as in PMID 19801740; conditions: DOH gavage, highest at 10 mg DOH/kg in frontal cortex and striatum; cited from earlier work
[5] = cited from earlier work
CDK9 [6] = target: T1, CDK9 (Homo sapiens, UniProt P50750); assay: Reaction Biology kinase activity inhibition; assay type: biochemical; parameters: purchased Reaction Biology (Malvern, PA); conditions: activity screening, DOH at 50 μM
Text: The second screening was the Reaction Biology® (Malvern, PA) kinase activity inhibition tests, which screened for more than 600 protein kinases and lipid kinases, using miniaturized radioisotope-based assay platform with γ-^33P-ATP, followed by confirmation with IC50 kinase profiling service with 5 concentrations of test compound (i.e., DOH and DA) with curve fitting.

CDK9 [7] = target: T1, CDK9; assay: KINOMEscan competition binding; parameters: purchased Eurofins DiscoverX (KINOMEscan)
Procedure: Two distinct platforms were used for initial screening with 50 µM DOH vs. DMSO vehicle. The first was the Eurofins DiscoverX KINOMEscan® (Freemont, CA USA) profiling platform, which employed a proprietary active site-directed competition binding assay to quantitatively measure interactions between a test compound (i.e., DOH) and 468 human protein kinases and disease relevant mutant variants either directly (sterically) or indirectly (allosterically) to prevent a kinase binding to its immobilized substrate (ligand). The top 8 hits were subjected to secondary screening verification by DOH concentration-titration for dissociation constant (Kd). For ROCK1 and ROCK2, DA was chosen for Kd titration as well, because it is ~ 10 × higher than D in peripheral circulation due to its resistance to hydrolysis by carboxyesterase-2 (Fig. 1C).
Target sequence in this assay (P50750 whole entry): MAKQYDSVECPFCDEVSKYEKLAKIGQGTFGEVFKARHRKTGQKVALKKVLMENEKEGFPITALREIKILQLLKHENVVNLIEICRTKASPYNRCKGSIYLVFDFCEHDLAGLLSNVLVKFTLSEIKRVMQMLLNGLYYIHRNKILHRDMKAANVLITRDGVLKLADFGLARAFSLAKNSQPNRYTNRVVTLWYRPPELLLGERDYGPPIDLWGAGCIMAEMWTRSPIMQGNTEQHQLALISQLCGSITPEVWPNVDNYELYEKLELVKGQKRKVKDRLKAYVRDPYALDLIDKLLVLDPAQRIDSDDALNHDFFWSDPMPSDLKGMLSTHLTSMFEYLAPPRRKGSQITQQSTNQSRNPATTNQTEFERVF

PKCzeta = target: T2, PKCzeta (Homo sapiens, UniProt Q05513); assay: Reaction Biology kinase activity inhibition; assay type: biochemical; conditions: initial screening
T2 construct: purchased Reaction Biology
Outline: (§1)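 Kinase inhibition is measured by incorporation of ^33P from γ-^33P-ATP in a miniaturized assay covering over 600 protein and lipid kinases; confirmatory IC50 profiling uses five concentrations.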

TYK2 = target: T3, TYK2 (Homo sapiens, UniProt P29597); assay: Reaction Biology kinase activity inhibition; assay type: biochemical; conditions: initial screening
T3 construct: purchased Reaction Biology
Outline: as §1

c-MET (Y1235D) = target: T4, c-MET (Y1235D) (Homo sapiens, UniProt P08581, Y1235D); assay: Reaction Biology kinase activity inhibition; assay type: biochemical; conditions: initial screening
T4 construct: purchased Reaction Biology
Outline: as §1

c-Kit (D816H) = target: T5, c-Kit (D816H) (Homo sapiens, UniProt P10721, D816H); assay: Reaction Biology kinase activity inhibition; assay type: biochemical; conditions: initial screening
T5 construct: purchased Reaction Biology
Outline: as §1

MELK = target: T6, MELK (Homo sapiens, UniProt Q14680); assay: Reaction Biology kinase activity inhibition; assay type: biochemical; conditions: initial screening
T6 construct: purchased Reaction Biology
Outline: as §1

Aurora B = target: T7, Aurora B (Homo sapiens, UniProt Q96GD4); assay: Reaction Biology kinase activity inhibition; assay type: biochemical; conditions: initial screening
T7 construct: purchased Reaction Biology
Outline: as §1

PKCtheta = target: T8, PKCtheta (Homo sapiens, UniProt Q04759); assay: Reaction Biology kinase activity inhibition; assay type: biochemical; conditions: initial screening
T8 construct: purchased Reaction Biology
Outline: as §1

CK2a = target: T9, CK2a (Homo sapiens, UniProt P68400); assay: Reaction Biology kinase activity inhibition; assay type: biochemical; conditions: initial screening
T9 construct: purchased Reaction Biology
Outline: as §1

CLK4 = target: T10, CLK4 (Homo sapiens, UniProt Q9HAZ1); assay: Reaction Biology kinase activity inhibition; assay type: biochemical; conditions: initial screening
T10 construct: purchased Reaction Biology
Outline: as §1

STK21/CIT = target: T11, STK21/CIT (Homo sapiens, UniProt O14578); assay: Reaction Biology kinase activity inhibition; assay type: biochemical; conditions: initial screening
T11 construct: purchased Reaction Biology
Outline: as §1

STK32B/YANK2 = target: T12, STK32B/YANK2 (Homo sapiens, UniProt Q9NY57); assay: Reaction Biology kinase activity inhibition; assay type: biochemical; conditions: initial screening
T12 construct: purchased Reaction Biology
Outline: as §1

[8] = DOH (50 µM), Data 1 and Data 2, read-out: % Enzyme Activity (relative to DMSO controls)

T3 sequence (P29597 whole entry): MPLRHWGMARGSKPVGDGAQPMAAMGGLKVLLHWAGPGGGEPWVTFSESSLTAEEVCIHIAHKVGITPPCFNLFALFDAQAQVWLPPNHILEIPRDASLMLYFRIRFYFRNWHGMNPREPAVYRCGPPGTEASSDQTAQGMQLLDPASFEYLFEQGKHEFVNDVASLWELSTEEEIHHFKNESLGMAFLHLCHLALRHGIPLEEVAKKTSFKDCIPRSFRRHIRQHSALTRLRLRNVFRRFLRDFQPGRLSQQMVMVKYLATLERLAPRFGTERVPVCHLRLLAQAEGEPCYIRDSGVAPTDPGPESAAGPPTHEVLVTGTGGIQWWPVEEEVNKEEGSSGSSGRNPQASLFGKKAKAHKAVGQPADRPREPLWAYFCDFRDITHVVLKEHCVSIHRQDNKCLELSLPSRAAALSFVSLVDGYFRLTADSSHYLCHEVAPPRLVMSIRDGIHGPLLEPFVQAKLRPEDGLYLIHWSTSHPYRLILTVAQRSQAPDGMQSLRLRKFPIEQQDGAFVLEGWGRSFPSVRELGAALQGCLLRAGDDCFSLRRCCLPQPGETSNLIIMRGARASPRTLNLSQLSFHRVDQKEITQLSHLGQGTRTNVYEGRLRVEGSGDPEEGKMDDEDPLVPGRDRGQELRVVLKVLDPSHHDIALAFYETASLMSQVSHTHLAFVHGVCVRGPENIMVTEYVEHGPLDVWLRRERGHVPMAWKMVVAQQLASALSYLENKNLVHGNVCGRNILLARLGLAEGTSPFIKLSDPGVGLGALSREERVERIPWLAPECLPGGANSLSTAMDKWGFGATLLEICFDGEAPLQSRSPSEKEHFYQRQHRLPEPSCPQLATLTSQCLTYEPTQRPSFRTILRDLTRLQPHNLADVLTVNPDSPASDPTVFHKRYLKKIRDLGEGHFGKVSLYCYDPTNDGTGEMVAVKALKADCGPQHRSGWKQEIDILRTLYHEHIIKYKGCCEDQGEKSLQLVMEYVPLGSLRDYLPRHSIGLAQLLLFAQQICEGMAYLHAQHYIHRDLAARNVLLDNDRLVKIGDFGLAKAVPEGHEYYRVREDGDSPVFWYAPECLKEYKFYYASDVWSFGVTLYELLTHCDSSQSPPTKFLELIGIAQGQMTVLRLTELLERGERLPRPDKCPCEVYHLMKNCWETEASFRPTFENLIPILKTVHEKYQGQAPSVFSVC
T6 sequence (Q14680 whole entry): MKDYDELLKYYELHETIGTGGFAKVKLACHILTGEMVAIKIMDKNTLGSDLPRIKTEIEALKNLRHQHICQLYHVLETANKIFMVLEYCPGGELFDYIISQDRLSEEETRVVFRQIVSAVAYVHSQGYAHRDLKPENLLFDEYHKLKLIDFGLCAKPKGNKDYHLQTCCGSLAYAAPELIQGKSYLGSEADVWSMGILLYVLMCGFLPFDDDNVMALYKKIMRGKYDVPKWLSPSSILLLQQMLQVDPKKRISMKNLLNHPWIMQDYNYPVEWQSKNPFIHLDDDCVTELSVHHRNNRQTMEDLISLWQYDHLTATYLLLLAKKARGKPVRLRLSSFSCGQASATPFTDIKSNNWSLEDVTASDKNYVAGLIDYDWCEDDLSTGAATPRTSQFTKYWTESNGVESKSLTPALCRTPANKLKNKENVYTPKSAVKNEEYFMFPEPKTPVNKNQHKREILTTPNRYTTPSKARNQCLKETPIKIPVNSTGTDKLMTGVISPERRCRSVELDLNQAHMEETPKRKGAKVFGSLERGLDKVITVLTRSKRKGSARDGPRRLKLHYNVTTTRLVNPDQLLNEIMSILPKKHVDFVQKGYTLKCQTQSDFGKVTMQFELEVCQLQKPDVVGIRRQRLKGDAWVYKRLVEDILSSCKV
T10 sequence (Q9HAZ1 whole entry): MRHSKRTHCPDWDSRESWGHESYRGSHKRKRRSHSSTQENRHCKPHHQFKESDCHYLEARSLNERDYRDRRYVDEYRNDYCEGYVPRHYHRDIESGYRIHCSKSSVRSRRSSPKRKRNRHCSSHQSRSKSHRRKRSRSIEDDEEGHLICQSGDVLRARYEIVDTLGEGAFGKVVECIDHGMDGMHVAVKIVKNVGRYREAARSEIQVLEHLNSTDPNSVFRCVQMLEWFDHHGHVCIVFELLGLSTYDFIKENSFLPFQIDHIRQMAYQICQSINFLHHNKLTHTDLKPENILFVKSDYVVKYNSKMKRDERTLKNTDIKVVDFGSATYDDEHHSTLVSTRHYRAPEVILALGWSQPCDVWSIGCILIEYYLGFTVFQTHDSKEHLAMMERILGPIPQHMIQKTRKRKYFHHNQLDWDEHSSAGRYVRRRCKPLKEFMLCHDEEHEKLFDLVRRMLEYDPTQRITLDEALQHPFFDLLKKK
T12 sequence (Q9NY57 whole entry): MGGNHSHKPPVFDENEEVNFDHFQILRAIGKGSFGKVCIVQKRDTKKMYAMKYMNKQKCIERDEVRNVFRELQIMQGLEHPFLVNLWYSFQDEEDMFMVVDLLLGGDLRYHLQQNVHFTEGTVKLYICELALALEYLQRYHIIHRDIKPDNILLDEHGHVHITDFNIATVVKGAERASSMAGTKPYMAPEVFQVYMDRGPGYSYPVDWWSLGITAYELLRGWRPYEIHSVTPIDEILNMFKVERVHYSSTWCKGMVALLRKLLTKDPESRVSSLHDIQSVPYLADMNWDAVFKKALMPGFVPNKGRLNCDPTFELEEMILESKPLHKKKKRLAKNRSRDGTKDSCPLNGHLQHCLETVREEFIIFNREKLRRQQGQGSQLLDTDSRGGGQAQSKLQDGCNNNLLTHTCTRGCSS
T7 sequence (Q96GD4 whole entry): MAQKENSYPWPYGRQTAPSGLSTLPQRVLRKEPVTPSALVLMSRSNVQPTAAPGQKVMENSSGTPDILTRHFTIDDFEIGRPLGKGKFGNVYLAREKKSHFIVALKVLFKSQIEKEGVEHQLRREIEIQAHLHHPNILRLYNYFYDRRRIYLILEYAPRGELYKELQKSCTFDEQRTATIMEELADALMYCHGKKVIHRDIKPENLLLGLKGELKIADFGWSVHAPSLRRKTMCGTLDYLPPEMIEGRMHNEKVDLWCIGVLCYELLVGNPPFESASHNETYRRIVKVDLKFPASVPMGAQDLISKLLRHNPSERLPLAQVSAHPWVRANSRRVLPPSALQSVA
T8 sequence (Q04759 whole entry): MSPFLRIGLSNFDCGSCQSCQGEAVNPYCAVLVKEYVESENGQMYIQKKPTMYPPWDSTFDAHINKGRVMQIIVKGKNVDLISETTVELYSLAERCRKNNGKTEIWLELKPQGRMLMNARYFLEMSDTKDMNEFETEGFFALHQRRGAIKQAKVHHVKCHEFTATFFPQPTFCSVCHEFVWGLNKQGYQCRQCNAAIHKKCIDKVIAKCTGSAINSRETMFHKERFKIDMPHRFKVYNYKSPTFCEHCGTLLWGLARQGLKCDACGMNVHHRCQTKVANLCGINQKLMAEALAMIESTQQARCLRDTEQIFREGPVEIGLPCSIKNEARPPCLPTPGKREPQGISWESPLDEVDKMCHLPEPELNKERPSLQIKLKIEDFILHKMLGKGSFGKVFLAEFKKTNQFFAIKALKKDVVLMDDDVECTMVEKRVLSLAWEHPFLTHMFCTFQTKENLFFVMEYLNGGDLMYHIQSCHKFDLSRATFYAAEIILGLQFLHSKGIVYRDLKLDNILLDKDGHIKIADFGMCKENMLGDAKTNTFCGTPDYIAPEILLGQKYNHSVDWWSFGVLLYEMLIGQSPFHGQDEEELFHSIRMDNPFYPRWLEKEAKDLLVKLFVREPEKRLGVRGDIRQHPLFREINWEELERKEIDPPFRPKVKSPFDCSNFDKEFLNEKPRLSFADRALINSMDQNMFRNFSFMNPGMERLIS
T9 sequence (P68400 whole entry): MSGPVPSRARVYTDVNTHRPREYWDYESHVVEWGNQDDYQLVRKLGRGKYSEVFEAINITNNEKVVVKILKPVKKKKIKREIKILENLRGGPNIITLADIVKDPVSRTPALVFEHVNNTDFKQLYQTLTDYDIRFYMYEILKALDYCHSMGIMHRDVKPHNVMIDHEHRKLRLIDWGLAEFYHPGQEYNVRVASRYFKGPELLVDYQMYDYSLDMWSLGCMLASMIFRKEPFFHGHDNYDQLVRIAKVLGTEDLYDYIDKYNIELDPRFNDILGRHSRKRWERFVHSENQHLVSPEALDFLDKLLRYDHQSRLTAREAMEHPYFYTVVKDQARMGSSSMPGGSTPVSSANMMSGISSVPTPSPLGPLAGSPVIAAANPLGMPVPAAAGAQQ

In the case of `C/C=C(/C)C(=O)O[C@H]1Cc2cc3ccc(=O)oc3cc2OC1(C)C` [DA, decursinol angelate], the severity of colitis (DSS-induced colitis) is listed as “attenuated the severity of colitis”, the “intracellular Cl- influx level” value ([1]; DA 0.001, 0.01 and 0.1 µg/ml ≈ 0.003, 0.03 and 0.3 µM) is listed as “increased” and the “protein expression of GAD65/67 and GABAA receptor subtypes” value [1] is listed as “increased the protein expression”. For the same compound, the “sleeping time by pentobarbital (42 mg/kg)” value ([2]; dose-dependent) was “prolonged sleeping time”, the spontaneous locomotor activity ([2]; oral DA 10, 25 and 50 mg/kg) was “markedly suppressed spontaneous locomotor activity” and the “mouse mortality and bacteremia” value [3] was “dose-dependent decrease of mouse mortality”. The “Cyp isoforms for metabolism to DOH” value (CYP2C19 and 3A4) was “major human isoforms”.
In the case of `CC1(C)Oc2cc3oc(=O)ccc3cc2C[C@@H]1O` [DOH, decursinol], the “anti-nociceptive ED50” value (acute pain models; gavaged DOH 5 to 200 mg/kg) is listed as ~ 50 mg/kg, the “peak time of anti-nociceptive efficacy” value (acute pain models; post dose) is listed as 30 min and the “serotonin (5-hydroxytryptamine) level in brain” value [4] is listed as “increase”. The AUCDOH/AUCtotal ([5]; conversion of D and DA to DOH) was 98.7%, the Cmax ([5]; read-out: mean peak concentration Cmax, 10 men and 10 women, 800 mg INM176 AGN oral) was 2480 nM and the “inhibition of kinase activity” value (CDK9 [6]) was “no inhibition”. The kinase bound, % of control at 50 µM (CDK9 [7]; read-out: Substrate bound % Control) was 12%, the pKd (CDK9 [7]; validation Kd titration, 0.003 to 50 µM) was < 4.30 and the inhibition at 50 µM (PKCzeta; DOH 50 µM) was 27.1%. The remaining activity at 50 µM (PKCzeta; [8]) was 72.9%, the inhibition at 50 µM (TYK2; DOH 50 µM) was 32.4% and the “% Enzyme Activity (relative to DMSO controls)” value (TYK2; DOH (50 µM), Data 1 and Data 2) was 62.8%. For the same compound, the remaining activity at 50 µM (TYK2; [8]) was 72.3%, the inhibition at 50 µM (c-MET (Y1235D); DOH 50 µM) was 30.7% and the “% Enzyme Activity (relative to DMSO controls)” value (c-MET (Y1235D); DOH (50 µM), Data 1 and Data 2) was 69.0%. For the same compound, the remaining activity at 50 µM (c-MET (Y1235D); [8]) was 69.5%, the inhibition at 50 µM (c-Kit (D816H); DOH 50 µM) was 25.5% and the “% Enzyme Activity (relative to DMSO controls)” value (c-Kit (D816H); DOH (50 µM), Data 1 and Data 2) was 66.8%. The remaining activity at 50 µM (c-Kit (D816H); [8]) was 82.2%, the inhibition at 50 µM (MELK; DOH 50 µM) was 35.2% and the “% Enzyme Activity (relative to DMSO controls)” value (MELK; DOH (50 µM), Data 1 and Data 2) was 64.6%. The remaining activity at 50 µM (MELK; [8]) was 65%, the inhibition at 50 µM (Aurora B; DOH 50 µM) was 36.2% and the “% Enzyme Activity (relative to DMSO controls)” value (Aurora B; DOH (50 µM), Data 1 and Data 2) was 63.7%. For the same compound, the remaining activity at 50 µM (Aurora B; [8]) was 64%, the inhibition at 50 µM (PKCtheta; DOH 50 µM) was 30.1% and the “% Enzyme Activity (relative to DMSO controls)” value (PKCtheta; DOH (50 µM), Data 1 and Data 2) was 69.2%. For the same compound, the remaining activity at 50 µM (PKCtheta; [8]) was 70.5%, the inhibition at 50 µM (CK2a; DOH 50 µM) was 33% and the “% Enzyme Activity (relative to DMSO controls)” value (CK2a; DOH (50 µM), Data 1 and Data 2) was 66.2%. The remaining activity at 50 µM (CK2a; [8]) was 67.8%, the inhibition at 50 µM (CLK4; DOH 50 µM) was 25.7% and the “% Enzyme Activity (relative to DMSO controls)” value (CLK4; DOH (50 µM), Data 1 and Data 2) was 74.0%. The remaining activity at 50 µM (CLK4; [8]) was 74.8%, the inhibition at 50 µM (STK21/CIT; DOH 50 µM) was 28.3% and the “% Enzyme Activity (relative to DMSO controls)” value (STK21/CIT; DOH (50 µM), Data 1 and Data 2) was 71.1%. The remaining activity at 50 µM (STK21/CIT; [8]) was 72.2%, the inhibition at 50 µM (STK32B/YANK2; DOH 50 µM) was 31.1% and the “% Enzyme Activity (relative to DMSO controls)” value (STK32B/YANK2; DOH (50 µM), Data 1 and Data 2) was 67.4%. The remaining activity at 50 µM (STK32B/YANK2; [8]) was 70.3%.
